Several values for one entry are separate records, joined by “and”; a condition that tells them apart may be missing. Equal entries are not always repeated.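 The compound was tested at five concentrations on cells cultured in 96-well plates, with a 48-hour exposure period. Abbreviation: GI50, concentration required for 50% inhibition of growth. The concentration for full growth arrest is given as TGI.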 Some results are limits rather than exact numbers.

The subject of the assay is MDA-MB-468 breast. Put plainly: NCI-60 cell line screen, 48 h.
Take `O=C(NOC[C@H](O)CO)c1ccc(F)c(F)c1Nc1ccc(I)cc1F`: the GI50 was 13.9 µM and the TGI is above 100 µM.
Regarding `CC(C)c1cnn2c(NCc3ccccc3)cc(NC[C@H]3CCNC[C@@H]3O)nc12`, the GI50 was 0.381 µM and 0.519 µM; the TGI is 1.79 µM and 2.33 µM.
Turning to `O=C1/C(=C/c2cccc(Br)c2)COc2ccc(O)cc21`, the GI50 was 1.75 µM and the TGI was 4.33 µM.
With `CCCCCCCCCCCCCCCCCC1=NC(C)(C)CN1CC(C)O` (stereo unspecified), the GI50 is 12.1 µM and the TGI is 24.4 µM.
For `O=S(=O)(NCCNc1nccc(-c2c(-c3ccc(F)c(O)c3)nc3sccn23)n1)c1ccc(F)cc1`, the GI50 is 2.97 µM and the TGI came out at 25.5 µM.
Regarding `CN(Cc1cnc2nc(N)nc(N)c2n1)c1ccc(C(=O)N[C@@H](CCC(=O)O)C(=O)O)cc1`, the TGI is above 250 µM.
For `COc1cc(F)c(F)c(Nc2ccc(I)cc2F)c1NS(=O)(=O)C1(C[C@H](O)CO)CC1`, the GI50 was above 5.95 µM and the TGI is above 10 µM.
On to `COc1cccc(/C(C#N)=C/c2nc3c(N4CCOCC4)nc(Cl)nc3n2C)c1`, for which the GI50 was 0.497 µM and the TGI is 1.87 µM.
As for `Cc1nc(N)nc2c1CCC(O)S2` (stereo unspecified), the GI50 is 2.74 µM and the TGI was 13 µM.
For `COc1ccc(/C=C/C(=O)/C=C/c2cc3ccccc3[nH]c2=O)cc1`, in that order: 2.32 µM and 6.59 µM.
Turning to `CC[C@H](Nc1ncnc2nc[nH]c12)c1nc2cccc(F)c2c(=O)n1-c1ccccc1`, the GI50 was 2.1 µM and the TGI was determined as 10.4 µM.
`O=c1c2cc(F)ccc2sc2c(N3CCNCC3)nc3ccc(F)cc3c12`: the GI50 is 1.58 µM and the TGI was found to be 3.05 µM.
For `O=[N+]([O-])c1cc(Cl)c2[nH]c3c(Cl)cc([N+](=O)[O-])cc3c2c1`, in that order: 0.169 µM and 2.26 µM.
With `COc1ccc2c(=O)cc(-c3ccccc3)[nH]c2c1`, the GI50 was 0.887 µM and the TGI is above 100 µM.
With `Cc1ncc(C(=O)Nc2ccc(CN3CCN(C)CC3)c(C(F)(F)F)c2)cc1C#Cc1cnc2cccnn12`, the GI50 is 1.11 µM and the TGI stood at 3.41 µM.
For the compound `CCNc1cc(-c2cccc(OC(F)(F)F)c2)nc2ccc(N3CCCC3)cc12`, the GI50 was 1.4 µM and the TGI was determined as 3.35 µM.
The corresponding values for `Cn1c(C(=O)c2ccncc2)cc2ccccc21` are 32.3 µM and above 100 µM.
`COc1ccc(-c2ccncc2)cc1C(N)=O`: the GI50 was above 25 µM and the TGI is above 25 µM.
Consider `O=C(/C=C/C12c3ccccc3C(c3ccccc31)C1C(=O)NC(=O)C12)c1ccc(Cl)cc1Cl` (stereo unspecified), for which the GI50 was 1.96 µM and the TGI amounted to 4.13 µM.
With `COc1ccc(-c2cs/c(=N\N=C\c3ccc(O)cc3O)n2/N=C/c2ccc(O)cc2O)cc1`, the GI50 was 1.96 µM and the TGI came out at 5.68 µM.
As to `FC(F)(c1ccc2ncccc2c1)c1nnc2ccc(-c3ccncc3)nn12`, the GI50 is 53.5 µM and the TGI is above 100 µM.
As to `COc1cc(OC)c(C(=O)/C=C/c2cc3c(cc2OCc2ccccc2)OC(C)(C)CC3)cc1CC=C(C)C`, the GI50 is 1.86 µM and the TGI turned out to be 7.84 µM.
For `C[C@@H]1C[C@H](C)CN(S(=O)(=O)c2ccc3c(NO)c4ccc(S(=O)(=O)N5C[C@H](C)C[C@H](C)C5)cc4c(N=O)c3c2)C1`, in that order: 0.154 µM and 0.312 µM.
With `CC(C)Nc1cc(-c2c[nH]c(C(=O)N[C@H](CO)c3cccc(Cl)c3)c2)c(Cl)cn1`, the GI50 is 3.54 µM and 5.12 µM; the TGI was 18.3 µM and > 10 µM.
In the case of `CC(=O)c1ccc2c(c1)C1C=CCC1[C@H](c1cc3c(cc1Br)OCO3)N2` (stereo partly specified), the GI50 is 0.308 µM.
In the case of `CC(C)c1c(-c2ccccc2)nc2c(C#N)c[nH]n2c1=O`, the GI50 is 19.1 µM and the TGI was 50.9 µM.
For `CCOC(=O)Nc1nc2ccc(OC)cc2s1`, the GI50 was 69.4 µM and the TGI was above 100 µM.
`Cc1nc(-c2ccccc2)n2nc(NCCCN3CCOCC3)ncc12`: the GI50 was above 5.33 µM and the TGI is above 25 µM.
Consider `CCOC(=O)C(Cc1c[nH]c2c(N(CCO)CCO)cccc12)(NC(C)=O)C(=O)OCC`, for which the TGI worked out at 132 µM.
As to `CC(=O)Oc1ccc(C23c4ccccc4C2(OC(C)=O)c2cc(OC(C)=O)ccc23)cc1` (stereo unspecified), the GI50 was 0.57 µM and the TGI was found to be 5.02 µM.
As to `CCCCCCCCOC(=O)CC[C@@H](C)[C@H]1CC[C@H]2[C@@H]3[C@H](OC(=O)CCN)C[C@@H]4C[C@H](OC(=O)CCN)CC[C@]4(C)[C@H]3C[C@H](OC(=O)CCN)[C@]12C`, the GI50 was 2.49 µM and the TGI worked out at 7.17 µM.
In the case of `CCC(O)c1ccc(Br)cc1NC(=O)c1cccc(Cl)c1` (stereo unspecified), the GI50 was 20.3 µM and the TGI was determined as 56.5 µM.
For `COc1cc2nc(SCc3cc(OC)c(OC)c(OC)c3)n(Cc3ccccc3)c(=O)c2cc1OC`, the GI50 was 0.307 µM and the TGI is 1.91 µM.
As to `Nc1nonc1-c1nc2cnccc2n1C1CC1`, the GI50 is 1.96 µM and the TGI is 10.1 µM.
Consider `CS(=O)(=O)CCNCc1cc(-c2cc3c(Nc4ccc(OCc5cccc(F)c5)c(Cl)c4)ncnc3s2)cs1`, for which the GI50 was 0.569 µM and the TGI amounted to 4.13 µM.
As for `O=C(/C=C/c1ccccc1)C(Br)C(Br)c1ccccc1` (stereo unspecified), the GI50 was 1.31 µM and the TGI was found to be 3.48 µM.
For `COc1cc2ncn(-c3cc(OCc4ccccc4C(F)(F)F)c(C(=O)N(C)C)s3)c2cc1OC`, in that order: 7.66 µM and above 14.7 µM.

The record behind these values is PubChem BioAssay (NCI).
